The record followed here is paper PMC4903021 (Organic letters, 2016).

The target of the test is T1, CazL (Chaetomium globosum, UniProt Q2GWL0).
T1 sequence (Q2GWL0 1-455): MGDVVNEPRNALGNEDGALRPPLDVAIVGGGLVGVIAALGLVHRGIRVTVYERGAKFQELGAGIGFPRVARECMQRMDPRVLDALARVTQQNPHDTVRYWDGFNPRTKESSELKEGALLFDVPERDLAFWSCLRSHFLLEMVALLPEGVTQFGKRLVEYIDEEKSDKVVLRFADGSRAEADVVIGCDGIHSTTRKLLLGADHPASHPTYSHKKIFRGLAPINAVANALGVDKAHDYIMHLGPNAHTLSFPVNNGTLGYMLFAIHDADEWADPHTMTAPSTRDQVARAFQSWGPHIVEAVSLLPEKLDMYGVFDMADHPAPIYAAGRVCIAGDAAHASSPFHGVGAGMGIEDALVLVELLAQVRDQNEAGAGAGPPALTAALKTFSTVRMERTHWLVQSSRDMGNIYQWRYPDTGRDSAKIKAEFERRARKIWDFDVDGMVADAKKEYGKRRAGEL
Kind of test: initial velocity kinetics of pyranoquinone formation. The format is biochemical. As to conditions: formation of 5.

By Km is commonly meant the substrate concentration at which the rate is half of its maximum.

Consider cazaldehyde A [compound 1], for which the Michaelis constant (Km) turned out to be 73 ± 9.93 µM.
